This is an account of results in ChEMBL document CHEMBL1153894, “Chloroquine-astemizole hybrids with potent in vitro and in vivo antiplasmodial activity” (Bioorg Med Chem Lett, 2009).

Series [1] relates to Plasmodium falciparum. The series is described as follows: Antiplasmodial activity against chloroquine-resistant Plasmodium falciparum K1 at 5 uM. In kind it is functional.
A short description of series [2]: Selectivity ratio of cytotoxicity for rat L6 cells to IC50 for Plasmodium falciparum K1. In kind it is cell-based. Conditions: read-out: FC.
Series [3] relates to Plasmodium falciparum. The series is described as follows: Antiplasmodial activity against chloroquine-resistant Plasmodium falciparum K1. In kind it is functional, organism-based.
A further series relates to L6. Description: Cytotoxicity against rat L6 cells. In kind it is cell-based.
The subject of series [4] is Plasmodium berghei. The series is described as follows: Antiplasmodial activity as reduced parasitaemia against Plasmodium berghei infected mice (Mus musculus) at 4 x 10 mg/kg intraperitoneal dose. The class given is functional. More on the design: scale not given: the % may be the effect or the level left.
Series [5] concerns Plasmodium berghei. The series is described as follows: Antiplasmodial activity as mean survival time against Plasmodium berghei infected mice (Mus musculus) at 4 x 50 mg/kg intraperitoneal dose. The class given is functional.
Series [6] concerns Plasmodium berghei. Description: Antiplasmodial activity as reduced parasitaemia against Plasmodium berghei infected mice (Mus musculus) at 4 x 20 mg/kg intraperitoneal dose. The class given is functional. Set-up: scale not given: the % may be the effect or the level left.
For series [7], the system named is Plasmodium berghei. Description: Antiplasmodial activity as mean survival time against Plasmodium berghei infected mice (Mus musculus) at 4 x 20 mg/kg intraperitoneal dose. The class given is functional.
For series [8], the system named is Plasmodium berghei. Description: Antiplasmodial activity as mean survival time against Plasmodium berghei infected mice (Mus musculus) at 4 x 10 mg/kg intraperitoneal dose. The class given is functional.
Series [9] has as its system Plasmodium berghei. The series is described as follows: Antiplasmodial activity as reduced parasitaemia against Plasmodium berghei infected mice (Mus musculus) at 4 x 50 mg/kg intraperitoneal dose. The class given is functional. Set-up: scale not given: the % may be the effect or the level left.

In the series with Plasmodium falciparum [1], `COc1ccc(CCN2CCC(Nc3nc4ccccc4n3Cc3ccc(F)cc3)CC2)cc1` [ASTEMIZOLE] had an Activity of 50%. Further, in [2], the selectivity ratio was greater than 100.
`Fc1ccc(Cn2c(N3CCC(Nc4ccnc5cc(Cl)ccc45)CC3)nc3ccccc32)cc1` came in with an IC50 with Plasmodium falciparum [3] of 64 nM. Moreover, the Activity in the series on L6 was determined as 9.1 µM. The selectivity ratio in [2] was greater than 100.
As for `Fc1ccc(Cn2c(N3CCN(CCCNc4ccnc5cc(Cl)ccc45)CC3)nc3ccccc32)cc1`, in the series on Plasmodium falciparum [3], the IC50 worked out at 23 nM. Moreover, the Activity in the series on L6 is 6.86 µM. Also, the selectivity ratio in series [2] is greater than 100.
With `Fc1ccc(Cn2c(NC3CCN(c4ccnc5cc(Cl)ccc45)CC3)nc3ccccc32)cc1`, the Activity was 99% with Plasmodium berghei [4], 80% with Plasmodium berghei [6], 99% in the series with Plasmodium berghei [9] and 8.8 µM in the series with L6. The MST with Plasmodium berghei [5] came out at 13 days; in the series with Plasmodium berghei [7] it was 8 days; in the series with Plasmodium berghei [8], 17 days. Besides, in the series with Plasmodium falciparum [3], the half-maximal inhibitory concentration (IC50) came to 37 nM. Besides, the selectivity ratio in series [2] is greater than 100.
`Fc1ccc(Cn2c(N3CCN(c4ccnc5cc(Cl)ccc45)CC3)nc3ccccc32)cc1` yielded a 50% inhibitory concentration (IC50) in the series with Plasmodium falciparum [3] of 610 nM. In the series on L6, the Activity was found to be 126 µM. Also, the selectivity ratio in series [2] is greater than 100.

For orientation: IC50 means the concentration that inhibits the measured activity by half.
